Laboratory results: US6759207B2, “Fluorogenic or fluorescent reporter molecules and their applications for whole-cell fluorescence screening assays for caspases and other enzymes and the use thereof” (Cytovia, Inc., priority 1997, dated 2004)
Peptide text beside a SMILES is read from it. * marks the point of attachment. NH(Rh110(N'-COOEt)) = CCOC(=O)Nc1ccc2c(c1)Oc1cc(N*)ccc1C21OC(=O)c2ccccc21

Columns and labels:
Assay type in all cases: biochemical
Details in all cases: 10 μM substrate, 37° C.
[1] = molecular target: T1, recombinant human caspase-7 (Homo sapiens, UniProt P55210); test: Cleavage of caspase-8 substrate by recombinant human caspase-7
T1 sequence (P55210 24-198 limits assumed): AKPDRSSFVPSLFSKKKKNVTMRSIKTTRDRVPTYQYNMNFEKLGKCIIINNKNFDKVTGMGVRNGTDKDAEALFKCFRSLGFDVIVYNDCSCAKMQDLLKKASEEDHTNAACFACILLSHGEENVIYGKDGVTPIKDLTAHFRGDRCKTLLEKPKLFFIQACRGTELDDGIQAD
T1 sequence (P55210 207-303 limits assumed): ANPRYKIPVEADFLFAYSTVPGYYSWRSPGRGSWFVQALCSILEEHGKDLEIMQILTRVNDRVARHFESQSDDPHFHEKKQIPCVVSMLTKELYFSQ
Method: (§1) N-Ac-LEVD-N-ethoxycarbonyl R110 SEQ ID NO:9 was assayed by recombinant human caspase-3, 6, 7, and 8. The assays were carried out at 37° C. in 96-well plates in a 100 μL incubation containing recombinant human caspase, 10 μM of N-Ac-LEVD-N′-ethoxycarbonyl R110 SEQ ID NO:9, and caspase assay buffer (40 mM PIPES, pH 7.2; 100 mM NaCl; 10% sucrose; 0.1% CHAPS; 1 mM EDTA; 10 mM DTT). At the end of the incubation period, the fluorescence was determined on a Bio-Tek FL500 fluorescence microplate reader using excitation and emission wavelengths of 485 and 530 nm, respectively. In order to correct for the endogenous fluorescence of the uncleaved substrate, controls were run which consisted of samples containing 10 μM N-Ac-LEVD-N′-ethoxycarbonyl R110 SEQ ID NO:9 without enzyme (“enzyme blanks”). Additional controls included samples containing the caspase inhibitor Ac-DEVD-CHO SEQ ID NO:5. […] Caspase-3 cleaved N-Ac-LEVD-N′-ethoxycarbonyl R110 SEQ ID NO:9 less efficiently, yielding a signal that was about 5-fold above the enzyme blank value.

[2] = molecular target: recombinant human caspase-8 (Homo sapiens, UniProt Q14790); test: Cleavage of caspase-8 substrate by recombinant human caspase-8
Method: as §1

[3] = molecular target: T2, recombinant human caspase-6 (Homo sapiens, UniProt P55212); test: Cleavage of caspase-8 substrate by recombinant human caspase-6
T2 sequence (P55212 24-179 limits assumed): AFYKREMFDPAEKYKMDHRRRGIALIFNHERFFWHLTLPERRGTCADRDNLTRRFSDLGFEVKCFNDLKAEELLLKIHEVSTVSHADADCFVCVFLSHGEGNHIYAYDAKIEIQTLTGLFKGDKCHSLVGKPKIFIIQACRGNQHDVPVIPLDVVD
T2 sequence (P55212 194-293 limits assumed): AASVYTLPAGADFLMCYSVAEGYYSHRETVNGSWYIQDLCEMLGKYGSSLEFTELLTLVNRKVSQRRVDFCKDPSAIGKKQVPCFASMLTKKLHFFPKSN
Method: as §1

[4] = molecular target: T3, recombinant human caspase-3 (Homo sapiens, UniProt P42574); test: Cleavage of caspase-8 substrate by recombinant human caspase-3
T3 sequence (P42574 29-175 limits assumed): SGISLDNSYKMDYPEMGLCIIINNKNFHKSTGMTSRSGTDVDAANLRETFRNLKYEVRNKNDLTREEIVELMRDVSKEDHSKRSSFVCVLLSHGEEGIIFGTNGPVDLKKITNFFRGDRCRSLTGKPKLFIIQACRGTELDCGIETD
T3 sequence (P42574 176-277 limits assumed): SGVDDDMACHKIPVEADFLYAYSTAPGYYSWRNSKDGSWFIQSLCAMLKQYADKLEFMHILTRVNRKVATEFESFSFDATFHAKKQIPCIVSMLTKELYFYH
Method: as §1

recombinant human caspase-8, sequence (Q14790 217-374 limits assumed): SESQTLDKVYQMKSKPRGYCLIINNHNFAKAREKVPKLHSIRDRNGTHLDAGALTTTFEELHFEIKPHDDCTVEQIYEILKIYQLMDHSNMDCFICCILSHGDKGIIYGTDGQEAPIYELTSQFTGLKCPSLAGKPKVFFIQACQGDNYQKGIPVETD
recombinant human caspase-8, sequence (Q14790 385-479 limits assumed): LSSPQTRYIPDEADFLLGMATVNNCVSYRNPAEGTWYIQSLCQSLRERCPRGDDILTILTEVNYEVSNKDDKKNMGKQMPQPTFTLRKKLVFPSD

fluorescent signal [1]: virtually no signal
signal to background ratio [2]: about 26
signal to background ratio [3]: about 13
signal above the enzyme blank value [4]: about 5 fold
SMILES: CCOC(=O)Nc1ccc2c(c1)Oc1cc(NC(=O)[C@H](CC(=O)O)NC(=O)[C@@H](NC(=O)[C@H](CCC(=O)O)NC(=O)[C@H](CC(C)C)NC(C)=O)C(C)C)ccc1C21OC(=O)c2ccccc21 (stereo partly drawn) [N-Ac-LEVD-N′-ethoxycarbonyl R110, N-(Ac-Leu-Glu-Val-Asp)-N′-ethoxycarbonyl-Rhodamine 110] (Ac-LEVD-{NH(Rh110(N'-COOEt))})
